# Reference: article PMC8227885 (Viruses, 2021)
# System: RBD
# Type: binding, SARS-CoV-2
row,Substance,"biosensor activity with RBD-Lg, ACE2 deletions and mutants"
1,Sm-ACE2-18–415,reduced biosensor activity
2,Sm-ACE2-18-515,significantly lower than that of Sm-ACE2-18-615/RBD-Lg
3,ACE2 K31,significantly reduced biosensor activity
4,K353A,almost abolished biosensor activity
